In test [1] the target is T1, DDR1 (Homo sapiens, UniProt Q08345). Put plainly: DDR1 LanthaScreen Europium Kinase Binding assay. The note with it: binding affinity; IC50 converted in Ki using Cheng-Prusoff; read-out: Ki DDR1. As to the method: (§1) DDR1 and DDR2 binding assays were performed using Life Technologies LanthaScreen™ Europium Kinase Binding assay. The compounds were incubated with 5 nM DDR1 (Carna Biosciences) or 5 nM DDR2 (Life Technologies) for 1 hour at room temperature in white 384-well OptiPlate (PerkinElmer), containing 20 nM or 10 nM Kinase Tracer 178 respectively and 2 nM Europium labelled anti-GST antibody (Life Technologies) in assay buffer (50 mM HEPES pH 7.5, 10 mM MgCI2, 1 mM EGTA and 0.01% BRIJ35). The ratio of fluorescence emission 665 nm/615 nm after excitation at 340 nm was obtained using the Tecan Spark 20M plate reader. IC50 values were determined in GraphPad Prism 7.0 software, using 4 parameter model: log(inhibitor) vs. response. IC50 values were converted in Ki using the Cheng-Prusoff equation (Ki=IC50/(1+[Tracer]/Kd).
T1 sequence (Q08345 19-913): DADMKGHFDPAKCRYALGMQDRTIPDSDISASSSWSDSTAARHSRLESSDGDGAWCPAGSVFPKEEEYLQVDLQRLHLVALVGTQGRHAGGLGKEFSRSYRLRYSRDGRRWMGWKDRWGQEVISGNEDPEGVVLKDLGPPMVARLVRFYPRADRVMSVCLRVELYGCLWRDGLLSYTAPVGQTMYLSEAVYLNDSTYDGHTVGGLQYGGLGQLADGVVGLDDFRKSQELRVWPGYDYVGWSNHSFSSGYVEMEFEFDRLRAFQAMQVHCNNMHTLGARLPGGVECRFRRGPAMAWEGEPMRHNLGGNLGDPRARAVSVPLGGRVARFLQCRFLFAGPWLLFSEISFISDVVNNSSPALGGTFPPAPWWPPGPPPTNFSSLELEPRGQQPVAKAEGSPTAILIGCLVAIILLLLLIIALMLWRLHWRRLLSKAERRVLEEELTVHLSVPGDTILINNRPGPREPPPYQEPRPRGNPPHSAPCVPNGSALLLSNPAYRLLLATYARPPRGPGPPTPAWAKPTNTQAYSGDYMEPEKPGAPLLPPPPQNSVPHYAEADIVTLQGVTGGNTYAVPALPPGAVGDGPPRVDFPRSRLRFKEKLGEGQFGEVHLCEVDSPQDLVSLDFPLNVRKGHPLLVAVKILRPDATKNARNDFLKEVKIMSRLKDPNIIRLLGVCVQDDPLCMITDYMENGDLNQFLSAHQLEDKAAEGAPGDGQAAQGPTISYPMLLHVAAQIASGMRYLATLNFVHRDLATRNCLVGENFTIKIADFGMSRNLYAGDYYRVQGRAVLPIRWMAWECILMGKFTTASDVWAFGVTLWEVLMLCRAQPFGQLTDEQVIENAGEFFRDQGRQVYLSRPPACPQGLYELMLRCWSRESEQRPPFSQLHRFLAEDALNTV
On the technique in general: Time-resolved FRET reads energy transfer from a long-lived donor to a nearby acceptor.

In another test the target is T2, DDR2 (Homo sapiens, UniProt Q16832).
T2 sequence (Q16832 22-855): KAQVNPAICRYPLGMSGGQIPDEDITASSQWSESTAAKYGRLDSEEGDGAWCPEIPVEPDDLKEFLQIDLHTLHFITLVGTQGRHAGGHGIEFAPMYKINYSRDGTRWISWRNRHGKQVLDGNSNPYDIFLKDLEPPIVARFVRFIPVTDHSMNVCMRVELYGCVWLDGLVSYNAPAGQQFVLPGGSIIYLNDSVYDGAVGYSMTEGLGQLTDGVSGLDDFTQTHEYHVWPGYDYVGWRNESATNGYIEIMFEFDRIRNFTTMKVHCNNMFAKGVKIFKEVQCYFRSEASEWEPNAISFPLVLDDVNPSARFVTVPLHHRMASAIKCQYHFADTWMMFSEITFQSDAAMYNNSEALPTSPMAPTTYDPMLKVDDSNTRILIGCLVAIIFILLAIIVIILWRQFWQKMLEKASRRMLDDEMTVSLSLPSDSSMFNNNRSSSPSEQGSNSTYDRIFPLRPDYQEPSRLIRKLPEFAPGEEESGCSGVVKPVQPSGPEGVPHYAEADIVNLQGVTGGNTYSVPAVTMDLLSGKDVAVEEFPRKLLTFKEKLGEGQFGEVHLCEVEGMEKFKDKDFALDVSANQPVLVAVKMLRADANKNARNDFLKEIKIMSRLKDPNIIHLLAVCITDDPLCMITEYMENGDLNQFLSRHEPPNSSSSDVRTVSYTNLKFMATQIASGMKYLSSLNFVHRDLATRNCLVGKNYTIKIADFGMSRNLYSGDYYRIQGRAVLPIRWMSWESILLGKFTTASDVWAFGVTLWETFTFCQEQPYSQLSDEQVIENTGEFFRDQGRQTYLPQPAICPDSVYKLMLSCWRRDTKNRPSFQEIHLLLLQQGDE
Put plainly: DDR2 LanthaScreen Europium Kinase Binding assay. The note with it: binding affinity; IC50 converted in Ki using Cheng-Prusoff; read-out: Ki DDR2. On the procedure: as §1

Test [2] concerns the target T1, DDR1. Put plainly: DDR1 cell based assay (PathHunter U2OS DDR1, collagen II stimulation). Conditions: U2OS-DDR1 cells, bovine Type II Collagen stimulation. As to the method:
The inhibition of DDR1 receptor activation by compounds was evaluated by PathHunter® U2OS DDR1 assay (Eurofins DiscoverX), according to the manufacturer's instructions. Briefly, U2OS-DDR1 cells were seeded in white 384-well plates at a density of 5000 cells/well and incubated for 2 hours at 37° C. and 5% CO2. Cells were then treated with compounds at different concentrations and incubated for 30 minutes, before stimulation with bovine Type II Collagen 20 μg/ml and incubation overnight at 37° C. and 5% CO2. PathHunter Detection Reagents were prepared according to the protocol provided by DiscoverX and 20 μl/well of this mix were added to each well. After incubating the plates for 1 hour at room temperature in the dark, luminescence signal was acquired with a plate reader. Raw data were normalized to vehicle control (0% for normalization) and positive control (100% for normalization; cells treated with 20 μg/ml collagen II) and IC50 parameters were calculated in GraphPad Prism 8.0 software, using sigmoidal dose-response curve fitting with variable slope.

The structures appear in SMILES notation.

Regarding `CC(C)(C)c1cc(NC(=O)c2ccc3c(c2)N(Cc2cnc4[nH]ncc4c2)CC3)n(-c2ccccc2)n1` [Example 40, 1-((1H-pyrazolo[3,4-b]pyridin-5-yl)methyl)-N-(3-(tert-butyl)-1-phenyl-1H-pyrazol-5-yl)indoline-6-carboxamide], the inhibitory constant (Ki) at DDR1 [1] was 25 to 50 nM; at DDR2 it was below 25 nM. On DDR1 [2], this molecule returned a half-maximal inhibitory concentration (IC50) of 25 to 50 nM.
Take `Cc1n[nH]c2ncc(CN3CCc4ccc(C(=O)Nc5cc(OCCN6CCCC6)cc(C(F)(F)F)c5)cc43)cc12` [Example 85, 1-((3-methyl-1H-pyrazolo[3,4-b]pyridin-5-yl)methyl)-N-(3-(2-(pyrrolidin-1-yl)ethoxy)-5-(trifluoromethyl)phenyl)indoline-6-carboxamide]: the Ki at DDR1 [1] and on DDR2 was below 25 nM throughout. The molecule further yielded a 50% inhibitory concentration (IC50) against DDR1 [2] below 25 nM.
On to `Cc1cn(-c2cc(NC(=O)c3ccc4c(c3)N(Cc3cnc5cnccn35)CC4C)cc(C(F)(F)F)c2)cn1` (racemic) [Example 26, 1-(imidazo[1,2-a]pyrazin-3-ylmethyl)-3-methyl-N-(3-(4-methyl-1H-imidazol-1-yl)-5-(trifluoromethyl)phenyl)indoline-6-carboxamide], for which the Ki on DDR1 [1] and at DDR2 was below 25 nM in each case. At DDR1 [2], the IC50 lay in the range of 25 to 50 nM.
On to `CN1CCN(Cc2ccc(NC(=O)c3ccc4c(c3)N(Cc3cnc5c(c3)CCN5)CC4)cc2C(F)(F)F)CC1` [Example 77, 1-((2,3-dihydro-1H-pyrrolo[2,3-b]pyridin-5-yl)methyl)-N-(4-((4-methylpiperazin-1-yl)methyl)-3-(trifluoromethyl)phenyl)indoline-6-carboxamide], for which the Ki at DDR1 [1] is below 25 nM; at DDR2 it was 25 to 50 nM. The same molecule came in with an IC50 on DDR1 [2] below 25 nM.
Regarding `Cc1cn(-c2cc(NC(=O)c3ccc4c(c3)N(C(=O)c3cnc5cnccn35)CC4C)cc(C(F)(F)F)c2)cn1` (stereo not drawn) [Example 29, 1-(imidazo[1,2-a]pyrazine-3-carbonyl)-3-methyl-N-(3-(4-methyl-1H-imidazol-1-yl)-5-(trifluoromethyl)phenyl)indoline-6-carboxamide], the inhibition constant Ki on DDR1 [1] and at DDR2 was below 25 nM in each case. The IC50 on DDR1 [2] was 50 to 80 nM.
Take `CN(C)Cc1c[nH]c2ncc(CN3CCc4ccc(C(=O)Nc5cncc(C(F)(F)F)c5)cc43)cc12` [Example 83, 1-((3-((dimethylamino)methyl)-1H-pyrrolo[2,3-b]pyridin-5-yl)methyl)-N-(5-(trifluoromethyl)pyridin-3-yl)indoline-6-carboxamide]: the Ki on DDR1 [1] and at DDR2 was below 25 nM each time. At DDR1 [2], this molecule returned a concentration for half-maximal inhibition (IC50) below 25 nM.
On to `O=C(Nc1cccc(C(F)(F)F)c1)c1ccc2c(c1)N(Cc1cnc3cnccn13)CC2` [Example 42, 1-(imidazo[1,2-a]pyrazin-3-ylmethyl)-N-(3-(trifluoromethyl)phenyl)indoline-6-carboxamide], for which the Ki on DDR1 [1] and at DDR2 was below 25 nM each time. Further, the half-inhibitory concentration (IC50) at DDR1 [2] is below 25 nM.
Consider `Cc1cn(-c2cc(NC(=O)c3ccc4c(c3)N(Cc3ccc5[nH]ncc5c3)CC4)cc(C(F)(F)F)c2)cn1` [Example 8, 1-((1H-indazol-5-yl)methyl)-N-(3-(4-methyl-1H-imidazol-1-yl)-5-(trifluoromethyl)phenyl)indoline-6-carboxamide], for which the Ki at DDR1 [1] and at DDR2 was 25 to 50 nM each time. For the same molecule, the half-inhibitory concentration (IC50) against DDR1 [2] lay within 50 to 80 nM.
Take `O=C(Nc1cc(F)cc(OC(F)(F)F)c1)c1ccc2c(c1)N(Cc1cnc3ccccn13)CC2` [Example 56, N-(3-fluoro-5-(trifluoromethoxy)phenyl)-1-(imidazo[1,2-a]pyridin-3-ylmethyl)indoline-6-carboxamide]: the Ki at DDR1 [1] and on DDR2 was below 25 nM throughout. Moreover, the IC50 at DDR1 [2] lay in the range of 25 to 50 nM.
For the molecule `Cc1cn(-c2cc(C(=O)Nc3ccc4c(c3)N(C(=O)c3cnc5cnccn35)CC4)cc(C(F)(F)F)c2)cn1` [Example 20, N-(1-(imidazo[1,2-a]pyrazine-3-carbonyl)indolin-6-yl)-3-(4-methyl-1H-imidazol-1-yl)-5-(trifluoromethyl)benzamide], the inhibition constant Ki at DDR1 [1] and on DDR2 was below 25 nM each time. At DDR1 [2], this molecule displayed a half-maximal inhibitory concentration (IC50) of 25 to 50 nM.
As for `O=C(Nc1cc(C(F)(F)F)ncn1)c1ccc2c(c1)N(Cc1cnc3cnccn13)CC2` [Example 88], the Ki at DDR1 [1] and at DDR2 was below 25 nM each time. On DDR1 [2], this molecule came in with an IC50 of 50 to 80 nM.
As for `Cc1n[nH]c2ncc(CN3CCc4ccc(C(=O)Nc5cc(CN6CCN(C)CC6)cc(C(F)(F)F)c5)cc43)cc12` [Example 68, 1-((3-methyl-1H-pyrazolo[3,4-b]pyridin-5-yl)methyl)-N-(3-((4-methylpiperazin-1-yl)methyl)-5-(trifluoromethyl)phenyl)indoline-6-carboxamide], the inhibition constant Ki at DDR1 [1] and at DDR2 was below 25 nM each time. For the same molecule, the IC50 on DDR1 [2] was below 25 nM.
For the molecule `O=C(Nc1cccc(C(F)(F)F)c1)c1ccc2c(c1)N(Cc1ccc3[nH]cnc3c1)CC2` [Example 60, 1-((1H-benzo[d]imidazol-5-yl)methyl)-N-(3-(trifluoromethyl)phenyl)indoline-6-carboxamide], the inhibitory constant (Ki) at DDR1 [1] was below 25 nM; at DDR2, 50 to 80 nM. This molecule came in with an IC50 against DDR1 [2] of 50 to 80 nM.
On to `Cc1n[nH]c2ncc(CN3CCc4ccc(C(=O)Nc5cc(CN(C)C)nc(C(F)(F)F)c5)cc43)cc12` [Example 82, N-(2-((dimethylamino)methyl)-6-(trifluoromethyl)pyridin-4-yl)-1-((3-methyl-1H-pyrazolo[3,4-b]pyridin-5-yl)methyl)indoline-6-carboxamide], for which the inhibitory constant (Ki) at DDR1 [1] and at DDR2 was below 25 nM in each case. The IC50 on DDR1 [2] was below 25 nM.
With `O=C(Nc1cc(CN2CCOCC2)cc(C(F)(F)F)c1)c1ccc2c(c1)N(Cc1cnc3cnccn13)CC2` [Example 49, 1-(imidazo[1,2-a]pyrazin-3-ylmethyl)-N-(3-(morpholinomethyl)-5-(trifluoromethyl)phenyl)indoline-6-carboxamide], the inhibitory constant (Ki) on DDR1 [1] and at DDR2 was below 25 nM each time. Further, the IC50 against DDR1 [2] lay in the range of 50 to 80 nM.
Regarding `Cc1cn(-c2cc(C(=O)Nc3ccc4c(c3)N(C(=O)c3cnc5ccccn35)CC4)cc(C(F)(F)F)c2)cn1` [Example 19, N-(1-(imidazo[1,2-a]pyridine-3-carbonyl)indolin-6-yl)-3-(4-methyl-1H-imidazol-1-yl)-5-(trifluoromethyl)benzamide], the inhibition constant Ki at DDR1 [1] and at DDR2 was below 25 nM each time. The IC50 on DDR1 [2] fell in the range of 25 to 50 nM.
For the molecule `Cc1cn(-c2cc(NC(=O)c3ccc4c(c3)N(C(=O)c3cnc5cnccn35)CC4)cc(C(F)(F)F)c2)cn1` [Example 13, 1-(imidazo[1,2-a]pyrazine-3-carbony1)-N-(3-(4-methyl-1H-imidazol-1-y1)-5-(trifluoromethyl)phenyl)indoline-6-carboxamide], the Ki on DDR1 [1] and at DDR2 was below 25 nM throughout. The molecule further had an IC50 at DDR1 [2] of 50 to 80 nM.
On to `O=C(Nc1cc(F)cc(C(F)(F)F)c1)c1ccc2c(c1)N(Cc1ccc3[nH]cnc3c1)CC2` [Example 62, 1-((1H-benzo[d]imidazol-5-yl)methyl)-N-(3-fluoro-5-(trifluoromethyl)phenyl)indoline-6-carboxamide], for which the Ki was in the range of 25 to 50 nM on DDR1 [1] and 50 to 80 nM at DDR2. The IC50 against DDR1 [2] fell in the range of 50 to 80 nM.

By Ki is commonly meant the equilibrium dissociation constant of an inhibitor or competing ligand from its target. In general, IC50 refers to the concentration at which inhibition is half-maximal. A high value points to weaker potency.

These data come from patent US20240217967A1, “INDOLINE DERIVATIVES AS DDRS INHIBITORS” (CHIESI FARMACEUTICI S.P.A., priority 2021, published 2024).
